Measurements from ChEMBL document CHEMBL5291721, “A preclinical secondary pharmacology resource illuminates target-adverse drug reaction associations of marketed drugs” (Nat Commun, 2023).

Molecular target: T1, Muscarinic acetylcholine receptor M1 (Homo sapiens, UniProt P11229)
T1 sequence (P11229 whole entry): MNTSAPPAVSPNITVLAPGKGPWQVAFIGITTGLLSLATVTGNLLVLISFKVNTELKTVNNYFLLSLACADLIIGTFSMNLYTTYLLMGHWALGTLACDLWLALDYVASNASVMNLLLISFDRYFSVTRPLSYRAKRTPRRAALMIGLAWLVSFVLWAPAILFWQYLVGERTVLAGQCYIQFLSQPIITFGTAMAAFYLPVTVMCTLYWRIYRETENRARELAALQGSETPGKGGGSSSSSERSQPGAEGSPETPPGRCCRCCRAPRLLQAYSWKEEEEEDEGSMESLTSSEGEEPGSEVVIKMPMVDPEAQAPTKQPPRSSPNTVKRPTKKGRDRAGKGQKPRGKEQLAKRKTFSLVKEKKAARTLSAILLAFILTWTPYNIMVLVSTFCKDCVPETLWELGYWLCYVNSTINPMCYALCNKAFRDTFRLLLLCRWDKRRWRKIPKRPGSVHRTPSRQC
Further: assay procedure not described here.

With `O=[N+]([O-])c1ccc(O)c2ncccc12` [NITROXOLINE] the AC50 was greater than 30 µM.
